Numbered stars: 1 amine (or outer) side, 2 acyl side, 3 side chain; on linkers, the order of the positions; unused ones are H or OH. Square brackets hold non-standard residues; d marks the D form. Peptide text beside a SMILES is read from it. * marks the point of attachment. 5FAM = O=C1OC2(c3ccc(O)cc3Oc3cc(O)ccc32)c2ccc(C(=O)*)cc21; NHCH2C6H4(4-CH2CONH2) = NC(=O)Cc1ccc(CN*)cc1; X1 = O=C(Cc1ccc(CN[*:1])cc1)[*:2]
Target: TNFα (Homo sapiens, UniProt P01375)
Experiment: MST binding affinity of resynthesized NNP hits to TNFα
Parameters: purchased R&D Systems, Inc. 210-TA/CF
Settings: read-out: KD (nM) [95% conf. int], NNP2 library hit, target TNFα, one-site binding model
Outline: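 Microscale thermophoresis at room temperature, triplicate, 15, 30 and 45 min incubations; targets labeled with RED-NHS 647 dye. Buffers (all 20 mM HEPES pH 7.4 unless noted): IL-6 150 mM KCl, 10 mM MgCl2, 0.1% Pluronic F-127; IL-6R 150 mM NaCl, 10 mM MgCl2, 0.05% Tween-20; TNFα 10 mM HEPES, 150 mM NaCl, 10 mM MgCl2, 0.05% Polysorbate-20; ASGPR adds 2 mM CaCl2, 0.05% Pluronic F-127, 1 mM DTT.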

TNFα, sequence (P01375 77-233 limits assumed): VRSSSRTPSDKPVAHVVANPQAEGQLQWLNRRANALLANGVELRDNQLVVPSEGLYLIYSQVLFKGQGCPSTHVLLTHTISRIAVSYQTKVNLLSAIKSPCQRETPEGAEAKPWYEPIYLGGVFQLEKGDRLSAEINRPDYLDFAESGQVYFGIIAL

Structure (SMILES)	Kd
CC(C)C[C@H](NC(=O)[C@@H](CCCCN)NC(=O)[C@@H](Cc1ccccc1)NC(=O)Cc1ccc(CNC(=O)[C@H](CC(C)C)NC(=O)[C@H](NC(=O)[C@@H](CCCNC(=N)N)NC(=O)Cc2ccc(CNC(=O)[C@H](CC(C)C)NC(=O)[C@@H](CCCNC(=N)N)NC(=O)[C@@H](CC(C)C)NC(=O)Cc3ccc(CNC(=O)[C@H](CC(C)C)NC(=O)[C@H](NC(=O)[C@@H](CCCCN)NC(=O)c4ccc5c(c4)C(=O)OC54c5ccc(O)cc5Oc5cc(O)ccc54)C(C)C)cc3)cc2)C(C)C)cc1)C(=O)NCc1ccc(CC(=O)N[C@H](C)C(=O)N[C@H](CCCCN)C(=O)N[C@@H](Cc2ccccc2)C(=O)NCc2ccc(CC(=O)N[C@H](Cc3ccccc3)C(=O)N[C@@H](C(=O)N[C@@H](C)C(=O)NCc3ccc(CC(=O)N4CCC[C@@H]4C(=O)NCC(=O)N[C@H](C(=O)NCc4ccc(CC(=O)N[C@H](CCCCN)C(=O)N[C@H](Cc5ccccc5)C(=O)N[C@@H](Cc5ccccc5)C(=O)NCc5ccc(CC(=O)N[C@H](C)C(=O)N[C@@H](C(=O)N[C@@H](CC(C)C)C(=O)NCc6ccc(CC(N)=O)cc6)C(C)C)cc5)cc4)C(C)C)cc3)[C@H](C)O)cc2)cc1 [TNF-39-7] (5FAM-[dK][dV]L[X1][dL][dR]L[X1][dR][dV]L[X1][dF][dK]L[X1][dA][dK]F[X1][dF][dT]A[X1][dP]GV[X1][dK][dF]F[X1][dA][dV]L-{NHCH2C6H4(4-CH2CONH2)})	53 nM
CC(C)C[C@H](NC(=O)[C@@H](CCCNC(=N)N)NC(=O)[C@@H](Cc1c[nH]c2ccccc12)NC(=O)Cc1ccc(CNC(=O)[C@@H](NC(=O)[C@@H](CCC(=O)O)NC(=O)[C@@H](Cc2ccccc2)NC(=O)Cc2ccc(CNC(=O)[C@H](C)NC(=O)[C@@H](Cc3c[nH]cn3)NC(=O)[C@@H](Cc3c[nH]c4ccccc34)NC(=O)Cc3ccc(CNC(=O)[C@H](CC(C)C)NC(=O)[C@H](NC(=O)[C@@H](CCCCN)NC(=O)c4ccc5c(c4)C(=O)OC54c5ccc(O)cc5Oc5cc(O)ccc54)C(C)C)cc3)cc2)C(C)C)cc1)C(=O)NCc1ccc(CC(=O)N[C@H](Cc2ccc(O)cc2)C(=O)N[C@H](CCCCN)C(=O)N[C@@H](C)C(=O)NCc2ccc(CC(=O)N[C@H](CC(N)=O)C(=O)N[C@H](CCCNC(=N)N)C(=O)N[C@@H](Cc3ccccc3)C(=O)NCc3ccc(CC(=O)N4CCC[C@@H]4C(=O)N[C@@H](C(=O)NCC(=O)NCc4ccc(CC(=O)N5CCC[C@@H]5C(=O)N[C@H](CCCNC(=N)N)C(=O)N[C@@H](C)C(=O)NCc5ccc(CC(=O)N[C@H](C)C(=O)N[C@H](CCCCN)C(=O)NCC(=O)NCc6ccc(CC(N)=O)cc6)cc5)cc4)C(C)C)cc3)cc2)cc1 [TNF-39-8] (5FAM-[dK][dV]L[X1][dW][dH]A[X1][dF][dE]V[X1][dW][dR]L[X1][dY][dK]A[X1][dN][dR]F[X1][dP][dV]G[X1][dP][dR]A[X1][dA][dK]G-{NHCH2C6H4(4-CH2CONH2)})	270 nM
CC(C)C[C@H](NC(=O)[C@@H](CCCNC(=N)N)NC(=O)CNC(=O)Cc1ccc(CNC(=O)[C@H](CC(C)C)NC(=O)[C@H](NC(=O)[C@@H](CCCCN)NC(=O)c2ccc3c(c2)C(=O)OC32c3ccc(O)cc3Oc3cc(O)ccc32)C(C)C)cc1)C(=O)NCc1ccc(CC(=O)N[C@H](CCCNC(=N)N)C(=O)N[C@@H](C(=O)N[C@@H](CC(C)C)C(=O)NCc2ccc(CC(=O)N[C@H](Cc3c[nH]c4ccccc34)C(=O)N[C@H](CCCNC(=N)N)C(=O)N[C@@H](CC(C)C)C(=O)NCc3ccc(CC(=O)N[C@H](Cc4c[nH]c5ccccc45)C(=O)N[C@H](CCCNC(=N)N)C(=O)N[C@H](C(=O)NCc4ccc(CC(=O)N[C@H](CO)C(=O)N[C@H](CO)C(=O)N[C@@H](Cc5ccccc5)C(=O)NCc5ccc(CC(=O)N[C@H](C)C(=O)N[C@H](CO)C(=O)N[C@@H](Cc6ccccc6)C(=O)NCc6ccc(CC(=O)N[C@H](Cc7c[nH]c8ccccc78)C(=O)N[C@H](CCCCN)C(=O)N[C@@H](CC(C)C)C(=O)NCc7ccc(CC(=O)N[C@H](Cc8ccc(O)cc8)C(=O)N[C@H](CCCNC(=N)N)C(=O)N[C@@H](Cc8ccccc8)C(=O)NCc8ccc(CC(N)=O)cc8)cc7)cc6)cc5)cc4)C(C)C)cc3)cc2)C(C)C)cc1 [TNF-39-9] (5FAM-[dK][dV]L[X1]G[dR]L[X1][dR][dV]L[X1][dW][dR]L[X1][dW][dR]V[X1][dS][dS]F[X1][dA][dS]F[X1][dW][dK]L[X1][dY][dR]F-{NHCH2C6H4(4-CH2CONH2)})	150 nM
CC(C)C[C@H](NC(=O)[C@@H](CCCNC(=N)N)NC(=O)[C@@H](CCC(=O)O)NC(=O)Cc1ccc(CNC(=O)[C@H](Cc2ccccc2)NC(=O)CNC(=O)[C@@H](C)NC(=O)Cc2ccc(CNC(=O)[C@@H](NC(=O)[C@@H](CCCNC(=N)N)NC(=O)[C@H]3CCCN3C(=O)Cc3ccc(CNC(=O)[C@@H](NC(=O)[C@@H](CCC(=O)O)NC(=O)[C@@H](Cc4ccccc4)NC(=O)Cc4ccc(CNC(=O)[C@H](Cc5ccccc5)NC(=O)[C@@H](C)NC(=O)[C@@H](C)NC(=O)Cc5ccc(CNC(=O)[C@H](CC(C)C)NC(=O)[C@H](NC(=O)[C@@H](CCCCN)NC(=O)c6ccc7c(c6)C(=O)OC76c7ccc(O)cc7Oc7cc(O)ccc76)C(C)C)cc5)cc4)C(C)C)cc3)C(C)C)cc2)cc1)C(=O)NCc1ccc(CC(=O)N2CCC[C@@H]2C(=O)N[C@@H](C(=O)NCC(=O)NCc2ccc(CC(=O)N[C@H](Cc3c[nH]c4ccccc34)C(=O)N[C@H](CCCCN)C(=O)N[C@@H](CC(C)C)C(=O)NCc3ccc(CC(=O)N4CCC[C@@H]4C(=O)N[C@H](C)C(=O)N[C@@H](C)C(=O)NCc4ccc(CC(N)=O)cc4)cc3)cc2)C(C)C)cc1 [TNF-39-10] (5FAM-[dK][dV]L[X1][dA][dA]F[X1][dF][dE]V[X1][dP][dR]V[X1][dA]GF[X1][dE][dR]L[X1][dP][dV]G[X1][dW][dK]L[X1][dP][dA]A-{NHCH2C6H4(4-CH2CONH2)})	38 nM
CC(C)C[C@H](NC(=O)[C@@H](CCCCN)NC(=O)[C@@H](Cc1c[nH]c2ccccc12)NC(=O)Cc1ccc(CNC(=O)CNC(=O)[C@H](NC(=O)[C@H]2CCCN2C(=O)Cc2ccc(CNC(=O)[C@H](Cc3ccccc3)NC(=O)[C@@H](CCCNC(=N)N)NC(=O)[C@@H](CC(N)=O)NC(=O)Cc3ccc(CNC(=O)[C@H](Cc4ccccc4)NC(=O)[C@@H](CCCCN)NC(=O)[C@@H](C)NC(=O)Cc4ccc(CNC(=O)[C@H](C)NC(=O)[C@@H](CCCNC(=N)N)NC(=O)[C@@H](Cc5ccccc5)NC(=O)Cc5ccc(CNC(=O)[C@@H](NC(=O)[C@@H](CCC(=O)O)NC(=O)[C@@H](Cc6ccccc6)NC(=O)Cc6ccc(CNC(=O)[C@H](CC(C)C)NC(=O)[C@@H](CCCNC(=N)N)NC(=O)[C@@H](CC(C)C)NC(=O)Cc7ccc(CNC(=O)[C@H](CC(C)C)NC(=O)[C@H](NC(=O)[C@@H](CCCCN)NC(=O)c8ccc9c(c8)C(=O)OC98c9ccc(O)cc9Oc9cc(O)ccc98)C(C)C)cc7)cc6)C(C)C)cc5)cc4)cc3)cc2)C(C)C)cc1)C(=O)NCc1ccc(CC(=O)N[C@H](Cc2ccc(O)cc2)C(=O)N[C@H](CCCNC(=N)N)C(=O)N[C@@H](Cc2ccccc2)C(=O)NCc2ccc(CC(N)=O)cc2)cc1 [TNF-39-11] (5FAM-[dK][dV]L[X1][dL][dR]L[X1][dF][dE]V[X1][dF][dR]A[X1][dA][dK]F[X1][dN][dR]F[X1][dP][dV]G[X1][dW][dK]L[X1][dY][dR]F-{NHCH2C6H4(4-CH2CONH2)})	86 nM
CC(C)C[C@H](NC(=O)[C@@H](CCCNC(=N)N)NC(=O)CNC(=O)Cc1ccc(CNC(=O)[C@H](CC(C)C)NC(=O)[C@H](NC(=O)[C@@H](CO)NC(=O)c2ccc3c(c2)C(=O)OC32c3ccc(O)cc3Oc3cc(O)ccc32)C(C)C)cc1)C(=O)NCc1ccc(CC(=O)N[C@H](Cc2ccccc2)C(=O)N[C@H](CCC(=O)O)C(=O)N[C@H](C(=O)NCc2ccc(CC(=O)N[C@H](Cc3ccccc3)C(=O)N[C@H](CCCCN)C(=O)N[C@@H](CC(C)C)C(=O)NCc3ccc(CC(=O)N[C@H](Cc4ccc(O)cc4)C(=O)N[C@H](CCCCN)C(=O)N[C@@H](C)C(=O)NCc4ccc(CC(=O)N[C@H](CCC(=O)O)C(=O)N[C@H](Cc5c[nH]c6ccccc56)C(=O)N[C@@H](C)C(=O)NCc5ccc(CC(=O)N[C@H](C)C(=O)N[C@H](CCCNC(=N)N)C(=O)N[C@@H](CC(C)C)C(=O)NCc6ccc(CC(=O)N[C@H](CCC(=O)O)C(=O)N[C@H](Cc7ccc(O)cc7)C(=O)N[C@@H](Cc7ccccc7)C(=O)NCc7ccc(CC(=O)N[C@H](Cc8ccc(O)cc8)C(=O)N[C@H](CCCNC(=N)N)C(=O)N[C@@H](Cc8ccccc8)C(=O)NCc8ccc(CC(N)=O)cc8)cc7)cc6)cc5)cc4)cc3)cc2)C(C)C)cc1 [TNF-39-13] (5FAM-[dS][dV]L[X1]G[dR]L[X1][dF][dE]V[X1][dF][dK]L[X1][dY][dK]A[X1][dE][dW]A[X1][dA][dR]L[X1][dE][dY]F[X1][dY][dR]F-{NHCH2C6H4(4-CH2CONH2)})	40 nM
CC(C)C[C@H](NC(=O)[C@@H](CCCCN)NC(=O)[C@@H](CC(C)C)NC(=O)Cc1ccc(CNC(=O)[C@H](CC(C)C)NC(=O)[C@@H](CCCNC(=N)N)NC(=O)[C@@H](CC(C)C)NC(=O)Cc2ccc(CNC(=O)[C@H](CC(C)C)NC(=O)[C@@H](CC(C)C)NC(=O)[C@@H](Cc3ccc(O)cc3)NC(=O)c3ccc4c(c3)C(=O)OC43c4ccc(O)cc4Oc4cc(O)ccc43)cc2)cc1)C(=O)NCc1ccc(CC(=O)N[C@H](Cc2ccccc2)C(=O)N[C@H](CCCNC(=N)N)C(=O)N[C@@H](C)C(=O)NCc2ccc(CC(=O)N[C@H](C)C(=O)N[C@H](CCCCN)C(=O)N[C@@H](Cc3ccccc3)C(=O)NCc3ccc(CC(=O)N[C@H](Cc4ccccc4)C(=O)N[C@@H](C(=O)N[C@@H](C)C(=O)NCc4ccc(CC(=O)N5CCC[C@@H]5C(=O)N[C@@H](C(=O)NCC(=O)NCc5ccc(CC(=O)N[C@@H](C(=O)N[C@H](Cc6c[nH]cn6)C(=O)N[C@@H](CC(C)C)C(=O)NCc6ccc(CC(=O)N[C@@H](C(=O)N[C@H](CO)C(=O)N[C@H](C(=O)NCc7ccc(CC(N)=O)cc7)C(C)C)[C@H](C)O)cc6)[C@H](C)O)cc5)C(C)C)cc4)[C@H](C)O)cc3)cc2)cc1 [TNF-39-14] (5FAM-[dY][dL]L[X1][dL][dR]L[X1][dL][dK]L[X1][dF][dR]A[X1][dA][dK]F[X1][dF][dT]A[X1][dP][dV]G[X1][dT][dH]L[X1][dT][dS]V-{NHCH2C6H4(4-CH2CONH2)})	36 nM

From patent publication US20230393140A1, “BINDING ASSAYS INVOLVING A PLURALITY OF SYNTHETIC COMPOUNDS, TARGETS, AND COUNTER TARGETS” (SRI International, priority 2020, published 2023)
